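Five compound concentrations were applied to cells in 96-well plates for 48 hours; endpoints were derived by simple linear interpolation of the resulting dose-response curve. GI50 marks 50% less growth. TGI is the concentration that stops growth completely.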
Columns and labels:
Assay in all cases: NCI anticancer screen, dose series, 48 h
[1] = test system: DMS 114 small cell lung
[2] = test system: IGROV1 ovarian
[3] = test system: KM12 colon
[4] = test system: MALME-3M melanoma
[5] = test system: OVCAR-5 ovarian
[6] = test system: RPMI-8226 leukemia
[7] = test system: SNB-19 CNS
[8] = test system: SR leukemia
[9] = test system: EKVX NSCLC
[10] = test system: DMS 273 small cell lung

Compound | TGI [1] [µM] | TGI [2] [µM] | TGI [3] [µM] | TGI [4] [µM] | TGI [5] [µM] | TGI [6] [µM] | TGI [7] [µM] | TGI [8] [µM] | GI50 [9] [µM] | TGI [9] [µM] | GI50 [2] [µM] | GI50 [3] [µM] | GI50 [4] [µM] | GI50 [5] [µM] | GI50 [6] [µM] | GI50 [7] [µM] | GI50 [8] [µM] | TGI [10] [µM]
O=C(NC1CCCCC1)c1c(O)[nH]c(=S)[nH]c1=O | > 100 | > 100 | > 100 | > 100 | > 100 | > 100 | > 100 | > 100 | – | – | – | – | – | – | – | – | – | –
O=C(c1ccccc1)c1ccc(-c2ccc(O)cc2)cc1 | – | 22.7 | 22.3 | 34.9 | > 100 | 18.3 | > 100 | 18.1 | 4.42 | 41.5 | 3.69 | 2.85 | 0.803 | 31 | 2.7 | 6.01 | 3 | –
CN(C(=O)c1ccc(F)cc1C(F)(F)F)C1CCN(c2nnc(-c3ccnn3C)c3ccccc23)CC1 | – | > 100 | > 100 | > 100 | > 100 | > 100 | > 100 | > 100 | 19.4 | > 100 | 57.3 | 52.8 | 23.6 | > 100 | 19.1 | 51.7 | 50.9 | –
COC(=O)OCC1OC(N2C(=O)NC(=O)C(I)C2N=[N+]=[N-])CC1OC(=O)OC (stereo unspecified) | – | > 100 | > 100 | > 100 | > 100 | > 100 | > 100 | > 100 | – | – | – | – | – | – | – | – | – | > 100
O=C(CC12CC3CC(CC(C3)C1)C2)NCCOCCOCCNC(=O)c1cc2c(o1)C(=O)c1ccccc1C2=O | – | 3.21 | 5.13 | 0.264 | 3.09 | 4.43 | 3.11 | 6.55 | 1.84 | 3.53 | 1.41 | 1.58 | 0.134 | 1.69 | 1.56 | 0.841 | 1.08 | –
C=C1C(=O)O[C@H]2[C@H]1CC/C(COC(=O)OCCCCCOC(=O)OC/C1=C/CC[C@@]3(C)O[C@H]3[C@H]3OC(=O)C(=C)[C@@H]3CC1)=C\CC[C@@]1(C)O[C@@H]21 | – | 4.37 | 3.31 | 0.878 | 2.08 | 1.47 | 7.71 | 0.744 | 1.12 | 3.32 | 1.67 | 1.51 | 0.285 | 0.581 | 0.359 | 2.1 | 0.208 | –
O=C1C(=O)c2ccc(Br)cc2-c2cc(Br)ccc21 | – | 29.5 | > 100 | > 52.3 | > 62.2 | 6.82 | > 100 | 2.92 | > 100 | > 100 | 6.57 | 9.65 | 7.74 | > 41.6 | 1.63 | 11 | 0.998 | –
CCN(CC)c1ccc(NC(C(=O)c2ccccc2)c2ccccc2)cc1 (stereo unspecified) | – | 18.1 | 15.7 | 7.44 | 5.26 | 12.3 | 19.1 | > 100 | 3.59 | 14.4 | 4.31 | 4.03 | 2.76 | 2.24 | 2.61 | 3.45 | 0.594 | –
Cc1cc(N(CCCl)CCCl)ccc1C=Nc1cccnc1 | – | > 84.1 | > 100 | > 100 | 15.9 | > 100 | > 100 | > 100 | 30 | 98.9 | 4.97 | 42.6 | 22.4 | 1.86 | 21.1 | 59.9 | 0.695 | –
COc1ccc2c(c1)C(=O)c1c-2c(NCCCN(C)C)nc2ccccc12 | – | 19.9 | 5.72 | 15.5 | 21.9 | 4.39 | 21.2 | 3.58 | 5.54 | 23.1 | 6.99 | 2.05 | 3.86 | 10.2 | 1.93 | 7.44 | 1.09 | –
O=S(=O)(c1cccc(C(F)(F)F)c1)N1c2ccccc2-n2cccc2C1c1cccnc1 (stereo unspecified) | – | > 100 | > 100 | > 54.5 | > 75.1 | > 57.7 | > 72.9 | 71.9 | – | > 100 | – | – | – | – | – | – | – | –
CS(=O)(=O)c1nccc(-c2c(-c3cccc(OCc4ccc(F)cc4)c3)nc3sccn23)n1 | – | > 100 | 7.61 | > 100 | > 100 | > 51 | > 96.7 | > 100 | 26.4 | > 100 | 11.2 | 2.95 | 67.3 | > 100 | 5.16 | 26 | 5.45 | –
CC1(C)CCC(S(=O)(=O)c2ccc3c(c2)/C(=N\O)c2cc(S(=O)(=O)N4CCC(O)(c5cccc(C(F)(F)F)c5)CC4)ccc2-3)CC1 | – | 1.07 | 0.0503 | 0.053 | 0.148 | 0.09 | 0.215 | 0.0443 | 0.0329 | 0.408 | 0.0491 | 0.0217 | 0.0216 | 0.0317 | 0.0255 | 0.0673 | 0.0174 | –
O=C1Nc2ccc(Cl)cc2/C1=C\c1c(-c2ccc(F)cc2)nc2ccccn12 | – | 8.58 | 4.61 | 14.8 | 6.72 | 7.86 | 27.4 | > 100 | 3.08 | 58.1 | 3.06 | 2.04 | 3.8 | 2.21 | 2.25 | 3.33 | 2.92 | –
Cc1ccc(NS(=O)(=O)c2ccc(-c3cnc(C4CC4)o3)cc2)cc1 | – | 17.3 | 15.9 | 17.6 | 22.6 | 12.6 | 16.6 | 17.7 | 4.24 | 19.9 | 3.78 | 2.53 | 2.48 | 9.28 | 2.82 | 3.88 | 0.316 | –
